According to the NIST ThermoML archive (doi:10.1016/j.fluid.2016.08.002):
Numbers after ± are expanded uncertainties.

Test: xn = mol fraction of the nth substance listed
Settings: Gas, Vibrating tube method

S [hydrogen sulfide] + C
Settings | mass density [kg/m3]
293.23 K, 18686 kPa, x2 = 0.8685 | 200.27 ± 2
293.23 K, 19770 kPa, x2 = 0.8685 | 210.3 ± 1.6
293.23 K, 22173 kPa, x2 = 0.8685 | 230.34 ± 0.92
293.23 K, 22860 kPa, x2 = 0.8685 | 235.56 ± 0.88
293.27 K, 193 kPa, x2 = 0.8197 | 1.54 ± 0.31
293.27 K, 227 kPa, x2 = 0.714 | 1.99 ± 0.38
293.27 K, 498 kPa, x2 = 0.8197 | 4.03 ± 0.43
293.27 K, 560 kPa, x2 = 0.714 | 4.92 ± 0.42
293.27 K, 7261 kPa, x2 = 0.714 | 85.92 ± 1
293.27 K, 7749 kPa, x2 = 0.714 | 94.83 ± 1.1
293.28 K, 1101 kPa, x2 = 0.714 | 9.72 ± 0.5
293.28 K, 1547 kPa, x2 = 0.714 | 14.1 ± 0.6
293.28 K, 2065 kPa, x2 = 0.714 | 19.16 ± 0.62
293.28 K, 8092 kPa, x2 = 0.714 | 103.64 ± 1.1
293.29 K, 2976 kPa, x2 = 0.714 | 28.53 ± 0.74
293.29 K, 3489 kPa, x2 = 0.714 | 33.95 ± 0.81
293.29 K, 8523 kPa, x2 = 0.714 | 108.8 ± 1.1
293.29 K, 10516 kPa, x2 = 0.714 | 145.41 ± 1.4
293.29 K, 11236 kPa, x2 = 0.714 | 161.66 ± 1.4
293.29 K, 13780 kPa, x2 = 0.714 | 213.21 ± 1.9
293.29 K, 19219 kPa, x2 = 0.8685 | 205.31 ± 1.8
293.29 K, 23988 kPa, x2 = 0.714 | 321.16 ± 1.4
293.29 K, 25012 kPa, x2 = 0.714 | 327.5 ± 1.4
293.3 K, 2511 kPa, x2 = 0.714 | 23.63 ± 0.69
293.3 K, 9149 kPa, x2 = 0.714 | 119.96 ± 1.2
293.3 K, 9741 kPa, x2 = 0.714 | 129.36 ± 1.3
293.3 K, 11789 kPa, x2 = 0.714 | 174.33 ± 1.6
293.3 K, 13528 kPa, x2 = 0.714 | 208.17 ± 1.8
293.3 K, 14426 kPa, x2 = 0.714 | 223.09 ± 2
293.3 K, 15049 kPa, x2 = 0.714 | 233.3 ± 2
293.3 K, 15503 kPa, x2 = 0.714 | 239.94 ± 2.1
293.3 K, 22979 kPa, x2 = 0.714 | 314.55 ± 1.5
293.3 K, 23460 kPa, x2 = 0.714 | 317.83 ± 1.5
293.3 K, 24512 kPa, x2 = 0.714 | 324.48 ± 1.4
293.3 K, 25515 kPa, x2 = 0.714 | 330.43 ± 1.4
293.3 K, 25988 kPa, x2 = 0.714 | 333.07 ± 1.4
293.31 K, 6513 kPa, x2 = 0.8197 | 63.51 ± 0.94
293.31 K, 6885 kPa, x2 = 0.714 | 80.49 ± 1
293.31 K, 12964 kPa, x2 = 0.714 | 198.31 ± 1.8
293.31 K, 14523 kPa, x2 = 0.714 | 224.65 ± 2
293.31 K, 16108 kPa, x2 = 0.714 | 249.28 ± 2.2
293.31 K, 21026 kPa, x2 = 0.714 | 300.53 ± 1.6
293.31 K, 22118 kPa, x2 = 0.714 | 308.67 ± 1.5
293.31 K, 22512 kPa, x2 = 0.714 | 311.24 ± 1.5
293.31 K, 23712 kPa, x2 = 0.714 | 319.93 ± 1.5
293.31 K, 26506 kPa, x2 = 0.714 | 335.86 ± 1.4
293.32 K, 5019 kPa, x2 = 0.8197 | 46.91 ± 0.89
293.32 K, 5508 kPa, x2 = 0.8197 | 52.59 ± 0.91
293.32 K, 5943 kPa, x2 = 0.714 | 66.82 ± 0.96
293.32 K, 7004 kPa, x2 = 0.8197 | 68.5 ± 0.96
293.32 K, 7520 kPa, x2 = 0.8197 | 74.89 ± 1
293.32 K, 8507 kPa, x2 = 0.8197 | 87.23 ± 1.1
293.32 K, 9526 kPa, x2 = 0.8197 | 100.87 ± 1.1
293.32 K, 10518 kPa, x2 = 0.8197 | 114.24 ± 1.2
293.32 K, 12220 kPa, x2 = 0.714 | 183.56 ± 1.6
293.32 K, 12521 kPa, x2 = 0.714 | 189.88 ± 1.7
293.32 K, 22053 kPa, x2 = 0.714 | 308.34 ± 1.5
293.33 K, 1434 kPa, x2 = 0.8197 | 12.03 ± 0.55
293.33 K, 3440 kPa, x2 = 0.8197 | 30.85 ± 0.77
293.33 K, 6464 kPa, x2 = 0.714 | 75.29 ± 0.97
293.33 K, 8008 kPa, x2 = 0.8197 | 80.89 ± 1
293.33 K, 9072 kPa, x2 = 0.8197 | 94.8 ± 1.1
293.33 K, 10169 kPa, x2 = 0.714 | 136.99 ± 1.3
293.33 K, 10922 kPa, x2 = 0.8197 | 121.63 ± 1.3
293.33 K, 18012 kPa, x2 = 0.714 | 271.26 ± 2.4
293.33 K, 18543 kPa, x2 = 0.714 | 276.99 ± 2.4
